Type in all cases: cell-based
The target in experiment [1] is T1, Gamma-aminobutyric acid receptor subunit alpha-5/beta-2/gamma-2 (Homo sapiens, UniProt P18507+P31644+P47870).
T1 sequence (P47870 whole entry): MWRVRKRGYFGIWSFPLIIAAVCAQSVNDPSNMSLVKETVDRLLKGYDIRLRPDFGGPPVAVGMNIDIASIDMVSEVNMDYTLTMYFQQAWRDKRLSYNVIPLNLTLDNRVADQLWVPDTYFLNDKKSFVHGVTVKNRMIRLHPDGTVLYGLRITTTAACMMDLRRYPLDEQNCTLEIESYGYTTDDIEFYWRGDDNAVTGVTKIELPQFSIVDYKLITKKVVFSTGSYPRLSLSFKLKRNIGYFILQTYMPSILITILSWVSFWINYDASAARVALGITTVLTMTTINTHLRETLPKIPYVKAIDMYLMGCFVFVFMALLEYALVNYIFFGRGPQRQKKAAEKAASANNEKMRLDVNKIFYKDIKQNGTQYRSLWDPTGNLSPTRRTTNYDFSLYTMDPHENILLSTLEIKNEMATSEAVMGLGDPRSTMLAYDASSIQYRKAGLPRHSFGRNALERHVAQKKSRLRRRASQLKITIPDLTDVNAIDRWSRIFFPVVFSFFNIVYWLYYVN
T1 sequence (P18507 whole entry): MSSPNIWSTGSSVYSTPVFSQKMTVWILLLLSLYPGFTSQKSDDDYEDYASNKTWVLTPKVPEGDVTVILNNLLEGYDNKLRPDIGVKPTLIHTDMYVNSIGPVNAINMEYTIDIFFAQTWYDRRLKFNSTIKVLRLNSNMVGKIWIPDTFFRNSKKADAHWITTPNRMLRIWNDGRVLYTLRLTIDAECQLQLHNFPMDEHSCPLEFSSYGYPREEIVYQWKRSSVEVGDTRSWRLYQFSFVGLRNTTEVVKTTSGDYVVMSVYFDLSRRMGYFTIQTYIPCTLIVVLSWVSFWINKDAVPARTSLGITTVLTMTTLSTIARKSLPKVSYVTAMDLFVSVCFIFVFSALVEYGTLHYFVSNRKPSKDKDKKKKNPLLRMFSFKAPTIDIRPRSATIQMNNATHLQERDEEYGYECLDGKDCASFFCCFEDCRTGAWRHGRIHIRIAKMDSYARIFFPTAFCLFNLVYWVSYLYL
T1 sequence (P31644 whole entry): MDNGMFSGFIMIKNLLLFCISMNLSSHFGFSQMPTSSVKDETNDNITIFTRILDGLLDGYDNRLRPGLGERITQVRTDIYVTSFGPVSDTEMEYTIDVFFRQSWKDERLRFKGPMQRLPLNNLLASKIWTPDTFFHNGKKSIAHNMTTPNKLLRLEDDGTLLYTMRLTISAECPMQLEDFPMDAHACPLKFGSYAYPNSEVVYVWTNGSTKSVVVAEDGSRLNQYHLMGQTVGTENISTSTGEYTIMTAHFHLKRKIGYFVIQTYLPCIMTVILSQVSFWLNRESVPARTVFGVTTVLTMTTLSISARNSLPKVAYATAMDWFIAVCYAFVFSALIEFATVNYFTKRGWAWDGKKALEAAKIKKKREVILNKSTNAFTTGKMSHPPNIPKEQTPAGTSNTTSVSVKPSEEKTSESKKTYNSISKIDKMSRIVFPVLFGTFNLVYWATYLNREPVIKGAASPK
In words: Agonist activity at recombinant human GABA-A alpha5beta2gamma2S receptor transiently expressed in human tsA201 cells incubated for 30 mins and measured up to 90 secs by FMP dye based FLIPR membrane potential blue assay.

The target in experiment [2] is Sodium- and chloride-dependent GABA transporter 1 (Homo sapiens, UniProt P30531).
Sodium- and chloride-dependent GABA transporter 1, sequence (P30531 whole entry): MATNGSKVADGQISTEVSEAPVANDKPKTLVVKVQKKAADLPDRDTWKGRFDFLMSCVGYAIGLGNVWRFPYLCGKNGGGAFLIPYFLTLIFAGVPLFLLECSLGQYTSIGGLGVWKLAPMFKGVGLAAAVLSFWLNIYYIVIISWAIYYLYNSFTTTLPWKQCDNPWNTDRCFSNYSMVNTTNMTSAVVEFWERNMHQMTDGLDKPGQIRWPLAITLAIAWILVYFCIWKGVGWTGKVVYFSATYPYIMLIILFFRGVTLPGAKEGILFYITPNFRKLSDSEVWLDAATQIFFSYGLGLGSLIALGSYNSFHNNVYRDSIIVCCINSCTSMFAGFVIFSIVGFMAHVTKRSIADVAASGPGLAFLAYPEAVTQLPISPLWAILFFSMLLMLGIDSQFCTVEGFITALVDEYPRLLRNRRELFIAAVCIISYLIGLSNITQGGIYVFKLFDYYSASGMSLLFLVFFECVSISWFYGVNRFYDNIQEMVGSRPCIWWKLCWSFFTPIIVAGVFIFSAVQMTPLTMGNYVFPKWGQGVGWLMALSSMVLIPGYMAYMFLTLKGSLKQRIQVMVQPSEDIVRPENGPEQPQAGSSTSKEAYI
The target in experiment [3] is T2, Sodium- and chloride-dependent GABA transporter 2 (Homo sapiens) (UniProt Q9NSD5).
T2 sequence (whole entry): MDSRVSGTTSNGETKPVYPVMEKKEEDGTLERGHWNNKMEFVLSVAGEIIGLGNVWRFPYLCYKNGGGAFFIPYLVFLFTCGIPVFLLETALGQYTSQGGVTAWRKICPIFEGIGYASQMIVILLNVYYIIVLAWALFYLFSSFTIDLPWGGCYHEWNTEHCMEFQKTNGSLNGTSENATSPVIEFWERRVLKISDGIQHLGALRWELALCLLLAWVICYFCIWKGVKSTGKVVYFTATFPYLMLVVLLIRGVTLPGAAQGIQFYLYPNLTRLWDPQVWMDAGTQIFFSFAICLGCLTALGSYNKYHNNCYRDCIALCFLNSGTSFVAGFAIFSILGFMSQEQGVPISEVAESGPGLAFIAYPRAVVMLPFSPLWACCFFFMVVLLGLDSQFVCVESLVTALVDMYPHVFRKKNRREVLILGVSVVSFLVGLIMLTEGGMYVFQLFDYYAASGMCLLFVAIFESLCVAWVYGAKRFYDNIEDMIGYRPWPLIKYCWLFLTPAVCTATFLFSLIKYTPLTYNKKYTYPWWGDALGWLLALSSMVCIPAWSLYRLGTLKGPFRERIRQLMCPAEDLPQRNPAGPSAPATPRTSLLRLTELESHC
In words: Inhibition of human GAT2 expressed in Flp-In CHO cells assessed as reduction in [3H]GABA uptake at 100 uM incubated for 3 mins by liquid scintillation counting method relative to control.

Experiment [4] has as its target T3, Sodium- and chloride-dependent GABA transporter 3 (Homo sapiens, UniProt P48066).
T3 sequence (P48066 whole entry): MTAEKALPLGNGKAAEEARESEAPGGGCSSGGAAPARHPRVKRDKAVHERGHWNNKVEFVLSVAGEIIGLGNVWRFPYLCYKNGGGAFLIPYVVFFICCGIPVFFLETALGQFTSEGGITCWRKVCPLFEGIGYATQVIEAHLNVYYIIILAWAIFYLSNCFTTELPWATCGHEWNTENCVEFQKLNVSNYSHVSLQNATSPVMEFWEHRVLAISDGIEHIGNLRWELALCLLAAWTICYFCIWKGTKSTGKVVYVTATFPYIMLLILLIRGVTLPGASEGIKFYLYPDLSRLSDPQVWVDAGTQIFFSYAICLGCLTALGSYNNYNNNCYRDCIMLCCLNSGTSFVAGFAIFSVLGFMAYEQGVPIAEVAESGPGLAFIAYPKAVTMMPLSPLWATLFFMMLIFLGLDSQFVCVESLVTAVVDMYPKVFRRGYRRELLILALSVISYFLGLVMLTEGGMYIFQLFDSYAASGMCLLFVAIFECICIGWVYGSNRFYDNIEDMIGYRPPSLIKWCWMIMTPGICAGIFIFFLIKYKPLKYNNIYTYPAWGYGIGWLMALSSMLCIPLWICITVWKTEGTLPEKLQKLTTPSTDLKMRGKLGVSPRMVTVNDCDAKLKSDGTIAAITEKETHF
In words: Inhibition of human GAT3 expressed in Flp-In CHO cells assessed as reduction in [3H]GABA uptake incubated for 3 mins by liquid scintillation counting method.

Bounds are passed on as bounds.

The record followed here is ChEMBL document CHEMBL4396887, “Five-Membered N-Heterocyclic Scaffolds as Novel Amino Bioisosteres at γ-Aminobutyric Acid (GABA) Type A Receptors and GABA Transporters” (J Med Chem, 2019).

One may read the EC50 as the midpoint of the concentration-response curve. In general, inhibition refers to the drop in the measured response relative to a control, in per cent. Regarding `O=C(O)C[C@@H]1CCNC1`, in experiment [1], the EC50 amounted to 24 µM. In addition, the values for the IC50 in experiment [2] (read-out: IC50), in experiment [2] (read-out: pIC50 (converted)) and in experiment [4] (read-out: IC50) were 3.9 µM, 3.16 µM and 2.7 µM, respectively. In addition, the inhibition in experiment [3] was more than 30%.
On to `CC(C(=O)O)C1CSC(N)=N1` (stereo in doubt; l-10b), for which the half-maximal effective concentration (EC50) in experiment [1] was 11 µM. Moreover, the IC50 in experiment [2] (read-out: IC50) and in experiment [4] (read-out: IC50) was more than 100 µM in each case.
In the case of `C[C@H]1SC(N)=N[C@@H]1CC(=O)O` (relative stereo), the concentration for a half-maximal effect (EC50) in experiment [1] amounted to 17 µM. Further, the IC50 in experiment [2] (read-out: IC50) and in experiment [4] (read-out: IC50) was more than 100 µM each time. Besides, in experiment [3], the inhibition was more than 30%.
`O=C(O)CC1CNC=N1` (stereo unspecified): in experiment [1], the concentration giving a half-maximal response (EC50) was 0.79 µM. Besides, the IC50 in experiment [2] (read-out: IC50) was determined as 71.4 µM; in experiment [4] (read-out: IC50), 1.9 µM. Also, the inhibition in experiment [3] is more than 30%.
With `C[C@@H](C(=O)O)[C@H]1CSC(N)=N1` (relative stereo), the EC50 in experiment [1] was found to be 2.6 µM. In addition, the IC50 in experiment [2] (read-out: IC50) and in experiment [4] (read-out: IC50) was more than 100 µM in each case. Moreover, the inhibition in experiment [3] was more than 30%.
Consider `C[C@@H](C(=O)O)[C@@H]1CSC(N)=N1` (relative stereo), for which, in experiment [1], the EC50 was determined as 3 µM. For the same molecule, the IC50 in experiment [2] (read-out: IC50) and in experiment [4] (read-out: IC50) was more than 100 µM throughout. The inhibition in experiment [3] is more than 30%.
As to `CC(C(=O)O)C1CSC(N)=N1` (stereo in doubt; l-10a), the EC50 in experiment [1] worked out at 2.7 µM. Moreover, the IC50 in experiment [2] (read-out: IC50) and in experiment [4] (read-out: IC50) was more than 100 µM each time.
As for `NC1=NC(CC(=O)O)CN1` (stereo unspecified), the concentration for a half-maximal effect (EC50) in experiment [1] was determined as 1.6 µM. The IC50 is 96.9 µM in experiment [2] (read-out: IC50) and 43.7 µM in experiment [4] (read-out: IC50). Besides, the inhibition in experiment [3] was more than 30%.
Turning to `NC1=NC(CC(=O)O)CS1` (stereo unspecified), the EC50 in experiment [1] was 0.22 µM. In addition, the IC50 in experiment [2] (read-out: IC50) is 179 µM; in experiment [2] (read-out: pIC50 (converted)) it was 158 µM; in experiment [4] (read-out: IC50) it was 151 µM; in experiment [4] (read-out: pIC50 (converted)), 126 µM. Further, the inhibition in experiment [3] was more than 30%.
`C[C@@H]1SC(N)=N[C@@H]1CC(=O)O` (relative stereo): the half-maximal effective concentration (EC50) in experiment [1] turned out to be 8.2 µM. Besides, the IC50 in experiment [2] (read-out: IC50) and in experiment [4] (read-out: IC50) was more than 100 µM each time. Moreover, the inhibition in experiment [3] is more than 30%.
As to `O=C(O)C[C@H]1CCNC1`, in experiment [1], the EC50 was found to be 0.94 µM. In addition, the IC50 is 3.6 µM in experiment [2] (read-out: IC50), 2.51 µM in experiment [2] (read-out: pIC50 (converted)) and 2.3 µM in experiment [4] (read-out: IC50). In experiment [3], the inhibition was more than 30%.
